From patent US20240366498A1, “Reducing the Risk of Infection from Bacteria Present in Skin Pores During Surgery” (The Board of Trustees of the Leland Stanford Junior …, priority 2021, published 2024)
Read-outs that look alike come from different tables or passages of the source.

Columns and labels:
Format in all cases: cell-based
[1] = test system: Cutibacterium acnes; experiment: Effect of antibacterial agents on C. acnes, seven strains taken together; conditions: across the tested strains
Method: (§1) Seven different strains of Cutibacterium acnes were grown in test tubes in Reinforced Clostridial Medium (RCM). Each strain was divided into different wells of mulita-well plates (96-well and 384-well plates were used). 80 μl was used and a 1:200 dilution from saturated cultures. Either an antibacterial agent or vehicle (as a control) was added to each well. Absorbance was measured and quantified as optical density (OD) as a proxy for cell biomass. The OD was recorded at regular intervals over several hours. […] The OD at 48 hours was estimated by calculating the average OD between 47 and 49 hours, and this value was used for further analyses. OD600 is the OD at 600 nm. The OD is listed in arbitrary units determined by the spectrophotometers.
Such OD data was collected for different concentrations of each antibacterial agent. […] The horizontal axis has units of μM (micromoles per liter). Next, IC50 values were calculated by assessing when the OD value was about 0.5.

[2] = test system: Cutibacterium acnes strain 10 (HM-523 (HL053PA2)); experiment: Growth of C. acnes strain 10 in RCM with antibacterial agent, optical density
Method: as §1, with “spectrophotometers. Such OD data was collected for different concentrations of each antibacterial agent. […] The horizontal axis has units of μM (micromoles per liter).” for “spectrophotometers.”

[3] = test system: Cutibacterium acnes strain 2 (BWH-002 25541381); experiment: Growth of C. acnes strain 2 in RCM with antibacterial agent, optical density
Method: as §1, with “spectrophotometers. Such OD data was collected for different concentrations of each antibacterial agent. […] The horizontal axis has units of μM (micromoles per liter).” for “spectrophotometers.”

[4] = test system: Cutibacterium acnes strain 15 (KPL2008); experiment: Growth of C. acnes strain 15 in RCM with antibacterial agent, optical density
Method: as §1, with “spectrophotometers. Such OD data was collected for different concentrations of each antibacterial agent. […] The horizontal axis has units of μM (micromoles per liter).” for “spectrophotometers.”

[5] = test system: Cutibacterium acnes strain 3 (BWH-003 25505801); experiment: Growth of C. acnes strain 3 in RCM with antibacterial agent, optical density
Method: as §1, with “spectrophotometers. Such OD data was collected for different concentrations of each antibacterial agent. […] The horizontal axis has units of μM (micromoles per liter).” for “spectrophotometers.”

[6] = test system: Cutibacterium acnes strain 12 (HM-539 (HL086PA1)); experiment: Growth of C. acnes strain 12 in RCM with antibacterial agent, optical density
Method: as §1, with “spectrophotometers. Such OD data was collected for different concentrations of each antibacterial agent. […] The horizontal axis has units of μM (micromoles per liter).” for “spectrophotometers.”

[7] = test system: Cutibacterium acnes strain 13 (HM-552 (HL110PA1)); experiment: Growth of C. acnes strain 13 in RCM with antibacterial agent, optical density
Method: as §1, with “spectrophotometers. Such OD data was collected for different concentrations of each antibacterial agent. […] The horizontal axis has units of μM (micromoles per liter).” for “spectrophotometers.”

[8] = test system: Cutibacterium acnes strain 16 (KPL1847); experiment: Growth of C. acnes strain 16 in RCM with antibacterial agent, optical density
Method: as §1, with “spectrophotometers. Such OD data was collected for different concentrations of each antibacterial agent. […] The horizontal axis has units of μM (micromoles per liter).” for “spectrophotometers.”

[9] = strain 10, OD at 48 hours, RCM, read-out: IC50
[10] = strain 2, OD at 48 hours, RCM, read-out: IC50
[11] = strain 15, OD at 48 hours, RCM, read-out: IC50
[12] = strain 3, OD at 48 hours, RCM, read-out: IC50
[13] = strain 12, OD at 48 hours, RCM, read-out: IC50
[14] = strain 13, OD at 48 hours, RCM, read-out: IC50
[15] = strain 16, OD at 48 hours, RCM, read-out: IC50

SMILES	IC50 values, in words [1]	IC50 [2, 9]	IC50 [3, 10]	IC50 [4, 11]	IC50 [5, 12]	IC50 [6, 13]	IC50 [7, 14]	IC50 [8, 15]	IC50 ([2]; 48 h)	IC50 ([3]; 48 h)	IC50 ([4]; 48 h)	IC50 ([5]; 48 h)	IC50 ([6]; 48 h)	IC50 ([7]; 48 h)	IC50 ([8]; 48 h)
O=C(OOC(=O)c1ccccc1)c1ccccc1 [Benzoyl Peroxide]		1280 µM	2560 µM	640 µM	> 2560 µM	2560 µM	640 µM	640 µM							
C[C@@H](O)[C@H]1C(=O)N2C(C(=O)O)=C(S[C@@H]3CN[C@H](C(=O)Nc4cccc(C(=O)O)c4)C3)[C@H](C)[C@H]12 [Ertapenem]		0.078 µM	0.039 µM	0.16 µM	0.16 µM	0.0098 µM	0.039 µM	0.31 µM							
OO [Hydrogen Peroxide]		2560 µM	1280 µM	2560 µM	2560 µM	1280 µM	640 µM	2560 µM							
NC[C@H]1O[C@H](O[C@H]2[C@H](O)[C@@H](O[C@H]3O[C@H](CO)[C@@H](O)[C@H](N)[C@H]3O)[C@H](N)C[C@@H]2N)[C@H](O)[C@@H](O)[C@@H]1O [Kanamycin]		320 µM	640 µM	640 µM	80 µM	160 µM	320 µM	160 µM							
CN[C@H](CC(C)C)C(=O)N[C@H]1C(=O)N[C@@H](CC(N)=O)C(=O)N[C@H]2C(=O)N[C@H]3C(=O)N[C@H](C(=O)N[C@H](C(=O)O)c4cc(O)cc(O)c4-c4cc3ccc4O)[C@H](O)c3ccc(c(Cl)c3)Oc3cc2cc(c3O[C@@H]2O[C@H](CO)[C@@H](O)[C@H](O)[C@H]2O[C@H]2C[C@](C)(N)[C@H](O)[C@H](C)O2)Oc2ccc(cc2Cl)[C@H]1O [Vancomycin]									0.16 µM	0.16 µM	0.31 µM	0.15 µM	0.31 µM	0.16 µM	0.31 µM

Continued, in another order:

IC50 values, in words [1]	IC50 [2, 9]	IC50 [3, 10]	IC50 [4, 11]	IC50 [5, 12]	IC50 [6, 13]	IC50 [7, 14]	IC50 [8, 15]	SMILES	IC50 ([2]; 48 h)	IC50 ([3]; 48 h)	IC50 ([4]; 48 h)	IC50 ([5]; 48 h)	IC50 ([6]; 48 h)	IC50 ([7]; 48 h)	IC50 ([8]; 48 h)
relatively low IC50 values	0.078 µM	0.078 µM	0.16 µM	0.0098 µM	0.039 µM	0.019 µM	0.31 µM	CC1(C)S[C@@H]2[C@H](NC(=O)[C@H](N)c3ccc(O)cc3)C(=O)N2[C@H]1C(=O)O [Amoxicillin]							
	0.31 µM	0.31 µM	2.5 µM	2.5 µM	0.16 µM	0.31 µM	2.5 µM	CO/N=C(\C(=O)N[C@@H]1C(=O)N2C(C(=O)[O-])=C(C[N+]3(C)CCCC3)CS[C@H]12)c1csc(N)n1 [Cefepime]							
relatively low IC50 values	0.0098 µM	0.0097 µM		0.0098 µM	0.0098 µM	0.0098 µM		CO/N=C(\C(=O)N[C@@H]1C(=O)N2C(C(=O)O)=C(CSc3nc(=O)c(=O)[nH]n3C)CS[C@H]12)c1csc(N)n1 [Ceftriaxone]							
	> 5120 µM	> 5120 µM	5120 µM	> 5120 µM	5120 µM	5120 µM	> 5120 µM	Cc1ncc([N+](=O)[O-])n1CCO [Metronidazole]							
